Results from the NIST ThermoML archive (doi:10.1016/j.jct.2013.07.003).
± gives the expanded uncertainty stated by the source.

What was measured:
[1] = refractive index (Na D-line) (dimensionless); xn = mol fraction of the nth substance listed; conditions: 101 kPa, Liquid, Standard Abbe refractometry
[2] = relative permittivity at various frequencies (dimensionless); xn = mol fraction of the nth substance listed; conditions: 101 kPa, Liquid, Frequency=0.1 MHz, Coaxial cylinder capacitor

Compound: CC(O)CCO (stereo not given) [1,3-butanediol] + CCCCCCCCO
- refractive index ([1]; 298.2 K, x1 = 0.105): 1.4279 ± 0.0005
- refractive index ([1]; 298.2 K, x1 = 0.2): 1.4283 ± 0.0005
- refractive index ([1]; 298.2 K, x1 = 0.301): 1.4288 ± 0.0005
- refractive index ([1]; 298.2 K, x1 = 0.401): 1.4295 ± 0.0005
- refractive index ([1]; 298.2 K, x1 = 0.45): 1.43 ± 0.0005
- refractive index ([1]; 298.2 K, x1 = 0.501): 1.4305 ± 0.0005
- refractive index ([1]; 298.2 K, x1 = 0.55): 1.4311 ± 0.0005
- refractive index ([1]; 298.2 K, x1 = 0.6): 1.4316 ± 0.0005
- refractive index ([1]; 298.2 K, x1 = 0.66): 1.4325 ± 0.0005
- refractive index ([1]; 298.2 K, x1 = 0.7): 1.4331 ± 0.0005
- refractive index ([1]; 298.2 K, x1 = 0.801): 1.4347 ± 0.0005
- refractive index ([1]; 298.2 K, x1 = 0.9): 1.4364 ± 0.0005
- refractive index ([1]; 298.2 K, x1 = 0.95): 1.4373 ± 0.0005
- refractive index ([1]; 298.2 K, x1 = 1): 1.4384 ± 0.0005
- refractive index ([1]; 303.2 K, x1 = 0.105): 1.4257 ± 0.0005
- refractive index ([1]; 303.2 K, x1 = 0.2): 1.4261 ± 0.0005
- refractive index ([1]; 303.2 K, x1 = 0.301): 1.4268 ± 0.0005
- refractive index ([1]; 303.2 K, x1 = 0.401): 1.4275 ± 0.0005
- refractive index ([1]; 303.2 K, x1 = 0.45): 1.4281 ± 0.0005
- refractive index ([1]; 303.2 K, x1 = 0.501): 1.4286 ± 0.0005
- refractive index ([1]; 303.2 K, x1 = 0.55): 1.4292 ± 0.0005
- refractive index ([1]; 303.2 K, x1 = 0.6): 1.4298 ± 0.0005
- refractive index ([1]; 303.2 K, x1 = 0.66): 1.4307 ± 0.0005
- refractive index ([1]; 303.2 K, x1 = 0.7): 1.4314 ± 0.0005
- refractive index ([1]; 303.2 K, x1 = 0.801): 1.4331 ± 0.0005
- refractive index ([1]; 303.2 K, x1 = 0.9): 1.4349 ± 0.0005
- refractive index ([1]; 303.2 K, x1 = 0.95): 1.4359 ± 0.0005
- refractive index ([1]; 303.2 K, x1 = 1): 1.4371 ± 0.0005
- refractive index ([1]; 308.2 K, x1 = 0.105): 1.4233 ± 0.0005
- refractive index ([1]; 308.2 K, x1 = 0.2): 1.4238 ± 0.0005
- refractive index ([1]; 308.2 K, x1 = 0.301): 1.4245 ± 0.0005
- refractive index ([1]; 308.2 K, x1 = 0.401): 1.4253 ± 0.0005
- refractive index ([1]; 308.2 K, x1 = 0.45): 1.4259 ± 0.0005
- refractive index ([1]; 308.2 K, x1 = 0.501): 1.4265 ± 0.0005
- refractive index ([1]; 308.2 K, x1 = 0.55): 1.4272 ± 0.0005
- refractive index ([1]; 308.2 K, x1 = 0.6): 1.4278 ± 0.0005
- refractive index ([1]; 308.2 K, x1 = 0.66): 1.4288 ± 0.0005
- refractive index ([1]; 308.2 K, x1 = 0.7): 1.4295 ± 0.0005
- refractive index ([1]; 308.2 K, x1 = 0.801): 1.4313 ± 0.0005
- refractive index ([1]; 308.2 K, x1 = 0.9): 1.4332 ± 0.0005
- refractive index ([1]; 308.2 K, x1 = 0.95): 1.4343 ± 0.0005
- refractive index ([1]; 308.2 K, x1 = 1): 1.4356 ± 0.0005
- refractive index ([1]; 313.2 K, x1 = 0.105): 1.4209 ± 0.0005
- refractive index ([1]; 313.2 K, x1 = 0.2): 1.4215 ± 0.0005
- refractive index ([1]; 313.2 K, x1 = 0.301): 1.4223 ± 0.0005
- refractive index ([1]; 313.2 K, x1 = 0.401): 1.4232 ± 0.0005
- refractive index ([1]; 313.2 K, x1 = 0.45): 1.4239 ± 0.0005
- refractive index ([1]; 313.2 K, x1 = 0.501): 1.4245 ± 0.0005
- refractive index ([1]; 313.2 K, x1 = 0.55): 1.4253 ± 0.0005
- refractive index ([1]; 313.2 K, x1 = 0.6): 1.426 ± 0.0005
- refractive index ([1]; 313.2 K, x1 = 0.66): 1.427 ± 0.0005
- refractive index ([1]; 313.2 K, x1 = 0.7): 1.4278 ± 0.0005
- refractive index ([1]; 313.2 K, x1 = 0.801): 1.4298 ± 0.0005
- refractive index ([1]; 313.2 K, x1 = 0.9): 1.4318 ± 0.0005
- refractive index ([1]; 313.2 K, x1 = 0.95): 1.4329 ± 0.0005
- refractive index ([1]; 313.2 K, x1 = 1): 1.4341 ± 0.0005
- refractive index ([1]; 318.2 K, x1 = 0.105): 1.4189 ± 0.0005
- refractive index ([1]; 318.2 K, x1 = 0.2): 1.4195 ± 0.0005
- refractive index ([1]; 318.2 K, x1 = 0.301): 1.4204 ± 0.0005
- refractive index ([1]; 318.2 K, x1 = 0.401): 1.4213 ± 0.0005
- refractive index ([1]; 318.2 K, x1 = 0.45): 1.4221 ± 0.0005
- refractive index ([1]; 318.2 K, x1 = 0.501): 1.4227 ± 0.0005
- refractive index ([1]; 318.2 K, x1 = 0.55): 1.4236 ± 0.0005
- refractive index ([1]; 318.2 K, x1 = 0.6): 1.4245 ± 0.0005
- refractive index ([1]; 318.2 K, x1 = 0.66): 1.4255 ± 0.0005
- refractive index ([1]; 318.2 K, x1 = 0.7): 1.4262 ± 0.0005
- refractive index ([1]; 318.2 K, x1 = 0.801): 1.4283 ± 0.0005
- refractive index ([1]; 318.2 K, x1 = 0.9): 1.4304 ± 0.0005
- refractive index ([1]; 318.2 K, x1 = 0.95): 1.4315 ± 0.0005
- refractive index ([1]; 318.2 K, x1 = 1): 1.4328 ± 0.0005
- relative permittivity ([2]; 298.2 K, x1 = 0.105): 10.43 ± 0.03
- relative permittivity ([2]; 298.2 K, x1 = 0.2): 11.24 ± 0.03
- relative permittivity ([2]; 298.2 K, x1 = 0.301): 12.31 ± 0.03
- relative permittivity ([2]; 298.2 K, x1 = 0.401): 13.6 ± 0.03
- relative permittivity ([2]; 298.2 K, x1 = 0.45): 14.39 ± 0.03
- relative permittivity ([2]; 298.2 K, x1 = 0.501): 15.23 ± 0.03
- relative permittivity ([2]; 298.2 K, x1 = 0.55): 16.1 ± 0.03
- relative permittivity ([2]; 298.2 K, x1 = 0.6): 17.05 ± 0.03
- relative permittivity ([2]; 298.2 K, x1 = 0.66): 18.34 ± 0.03
- relative permittivity ([2]; 298.2 K, x1 = 0.7): 19.31 ± 0.03
- relative permittivity ([2]; 298.2 K, x1 = 0.801): 21.99 ± 0.04
- relative permittivity ([2]; 298.2 K, x1 = 0.9): 25.05 ± 0.04
- relative permittivity ([2]; 298.2 K, x1 = 0.95): 26.73 ± 0.04
- relative permittivity ([2]; 298.2 K, x1 = 1): 28.52 ± 0.04
- relative permittivity ([2]; 303.2 K, x1 = 0.105): 9.99 ± 0.03
- relative permittivity ([2]; 303.2 K, x1 = 0.2): 10.8 ± 0.03
- relative permittivity ([2]; 303.2 K, x1 = 0.301): 11.86 ± 0.03
- relative permittivity ([2]; 303.2 K, x1 = 0.401): 13.15 ± 0.03
- relative permittivity ([2]; 303.2 K, x1 = 0.45): 13.92 ± 0.03
- relative permittivity ([2]; 303.2 K, x1 = 0.501): 14.73 ± 0.03
- relative permittivity ([2]; 303.2 K, x1 = 0.55): 15.6 ± 0.03
- relative permittivity ([2]; 303.2 K, x1 = 0.6): 16.52 ± 0.03
- relative permittivity ([2]; 303.2 K, x1 = 0.66): 17.77 ± 0.03
- relative permittivity ([2]; 303.2 K, x1 = 0.7): 18.77 ± 0.03
- relative permittivity ([2]; 303.2 K, x1 = 0.801): 21.34 ± 0.04
- relative permittivity ([2]; 303.2 K, x1 = 0.9): 24.33 ± 0.04
- relative permittivity ([2]; 303.2 K, x1 = 0.95): 25.9 ± 0.04
- relative permittivity ([2]; 303.2 K, x1 = 1): 27.66 ± 0.04
- relative permittivity ([2]; 308.2 K, x1 = 0.105): 9.56 ± 0.03
- relative permittivity ([2]; 308.2 K, x1 = 0.2): 10.32 ± 0.03
- relative permittivity ([2]; 308.2 K, x1 = 0.301): 11.36 ± 0.03
- relative permittivity ([2]; 308.2 K, x1 = 0.401): 12.62 ± 0.03
- relative permittivity ([2]; 308.2 K, x1 = 0.45): 13.39 ± 0.03
- relative permittivity ([2]; 308.2 K, x1 = 0.501): 14.21 ± 0.03
- relative permittivity ([2]; 308.2 K, x1 = 0.55): 15.04 ± 0.03
- relative permittivity ([2]; 308.2 K, x1 = 0.6): 15.93 ± 0.03
- relative permittivity ([2]; 308.2 K, x1 = 0.66): 17.13 ± 0.03
- relative permittivity ([2]; 308.2 K, x1 = 0.7): 18.02 ± 0.03
- relative permittivity ([2]; 308.2 K, x1 = 0.801): 20.58 ± 0.03
- relative permittivity ([2]; 308.2 K, x1 = 0.9): 23.43 ± 0.04
- relative permittivity ([2]; 308.2 K, x1 = 0.95): 25.07 ± 0.04
- relative permittivity ([2]; 308.2 K, x1 = 1): 26.77 ± 0.04
- relative permittivity ([2]; 313.2 K, x1 = 0.105): 9.1 ± 0.03
- relative permittivity ([2]; 313.2 K, x1 = 0.2): 9.91 ± 0.03
- relative permittivity ([2]; 313.2 K, x1 = 0.301): 10.95 ± 0.03
- relative permittivity ([2]; 313.2 K, x1 = 0.401): 12.19 ± 0.03
- relative permittivity ([2]; 313.2 K, x1 = 0.45): 12.94 ± 0.03
- relative permittivity ([2]; 313.2 K, x1 = 0.501): 13.75 ± 0.03
- relative permittivity ([2]; 313.2 K, x1 = 0.55): 14.53 ± 0.03
- relative permittivity ([2]; 313.2 K, x1 = 0.6): 15.42 ± 0.03
- relative permittivity ([2]; 313.2 K, x1 = 0.66): 16.57 ± 0.03
- relative permittivity ([2]; 313.2 K, x1 = 0.7): 17.46 ± 0.03
- relative permittivity ([2]; 313.2 K, x1 = 0.801): 20.02 ± 0.03
- relative permittivity ([2]; 313.2 K, x1 = 0.9): 22.79 ± 0.03
- relative permittivity ([2]; 313.2 K, x1 = 0.95): 24.31 ± 0.04
- relative permittivity ([2]; 313.2 K, x1 = 1): 25.98 ± 0.04
- relative permittivity ([2]; 318.2 K, x1 = 0.105): 8.74 ± 0.02
- relative permittivity ([2]; 318.2 K, x1 = 0.2): 9.5 ± 0.02
- relative permittivity ([2]; 318.2 K, x1 = 0.301): 10.54 ± 0.02
- relative permittivity ([2]; 318.2 K, x1 = 0.401): 11.76 ± 0.03
- relative permittivity ([2]; 318.2 K, x1 = 0.45): 12.49 ± 0.03
- relative permittivity ([2]; 318.2 K, x1 = 0.501): 13.27 ± 0.03
- relative permittivity ([2]; 318.2 K, x1 = 0.55): 14.06 ± 0.03
- relative permittivity ([2]; 318.2 K, x1 = 0.6): 14.92 ± 0.03
- relative permittivity ([2]; 318.2 K, x1 = 0.66): 16.07 ± 0.03
- relative permittivity ([2]; 318.2 K, x1 = 0.7): 16.91 ± 0.03
- relative permittivity ([2]; 318.2 K, x1 = 0.801): 19.37 ± 0.03
- relative permittivity ([2]; 318.2 K, x1 = 0.9): 22.1 ± 0.03
- relative permittivity ([2]; 318.2 K, x1 = 0.95): 23.62 ± 0.03
- relative permittivity ([2]; 318.2 K, x1 = 1): 25.22 ± 0.04
